Drawing on ChEMBL document CHEMBL3864159, “Variation of the aryl substituent on the piperazine ring within the 4-(piperazin-1-yl)-2,6-di(pyrrolidin-1-yl)pyrimidine scaffold unveils potent, non-competitive inhibitors of the inflammatory caspases” (Bioorg Med Chem Lett, 2016), this text covers inhibition, Activity and Ratio Ki for 5 compounds.

One experiment addresses T1, Papain (Carica papaya) (UniProt P00784).
T1 sequence (whole entry): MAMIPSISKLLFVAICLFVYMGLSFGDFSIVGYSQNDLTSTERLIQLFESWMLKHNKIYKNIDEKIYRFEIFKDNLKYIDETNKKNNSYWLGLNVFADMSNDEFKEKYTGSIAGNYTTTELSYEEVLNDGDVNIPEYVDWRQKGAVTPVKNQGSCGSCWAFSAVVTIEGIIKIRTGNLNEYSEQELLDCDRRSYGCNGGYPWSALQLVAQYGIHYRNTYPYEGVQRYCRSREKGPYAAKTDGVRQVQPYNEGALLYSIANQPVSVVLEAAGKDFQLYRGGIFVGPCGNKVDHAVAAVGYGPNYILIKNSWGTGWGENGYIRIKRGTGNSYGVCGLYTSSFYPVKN
The experiment is described as follows: Inhibition of papaya papain at 5 uM preincubated for 10 mins followed by Suc-LLVY-AMC substrate addition by fluorescence assay relative to control.

Experiment [1] deals with T2, Cathepsin K (Homo sapiens) (UniProt P43235).
T2 sequence (whole entry): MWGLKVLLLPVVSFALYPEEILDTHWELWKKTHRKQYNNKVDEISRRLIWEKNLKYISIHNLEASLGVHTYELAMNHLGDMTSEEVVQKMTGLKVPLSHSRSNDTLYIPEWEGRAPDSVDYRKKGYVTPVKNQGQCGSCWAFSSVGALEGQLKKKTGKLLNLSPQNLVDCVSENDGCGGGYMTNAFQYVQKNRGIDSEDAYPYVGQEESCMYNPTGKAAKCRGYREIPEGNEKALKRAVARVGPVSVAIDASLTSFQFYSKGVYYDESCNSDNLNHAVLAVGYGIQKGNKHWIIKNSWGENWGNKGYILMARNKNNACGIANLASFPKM
The experiment is described as follows: Inhibition of human recombinant cathepsin-K assessed as residual activity at 5 uM preincubated for 10 mins followed by Z-FR-AMC substrate addition by fluorescence assay relative to control.

In experiment [2] the target is T3, Calpain-1 catalytic subunit (Homo sapiens) (UniProt P07384).
T3 sequence (whole entry): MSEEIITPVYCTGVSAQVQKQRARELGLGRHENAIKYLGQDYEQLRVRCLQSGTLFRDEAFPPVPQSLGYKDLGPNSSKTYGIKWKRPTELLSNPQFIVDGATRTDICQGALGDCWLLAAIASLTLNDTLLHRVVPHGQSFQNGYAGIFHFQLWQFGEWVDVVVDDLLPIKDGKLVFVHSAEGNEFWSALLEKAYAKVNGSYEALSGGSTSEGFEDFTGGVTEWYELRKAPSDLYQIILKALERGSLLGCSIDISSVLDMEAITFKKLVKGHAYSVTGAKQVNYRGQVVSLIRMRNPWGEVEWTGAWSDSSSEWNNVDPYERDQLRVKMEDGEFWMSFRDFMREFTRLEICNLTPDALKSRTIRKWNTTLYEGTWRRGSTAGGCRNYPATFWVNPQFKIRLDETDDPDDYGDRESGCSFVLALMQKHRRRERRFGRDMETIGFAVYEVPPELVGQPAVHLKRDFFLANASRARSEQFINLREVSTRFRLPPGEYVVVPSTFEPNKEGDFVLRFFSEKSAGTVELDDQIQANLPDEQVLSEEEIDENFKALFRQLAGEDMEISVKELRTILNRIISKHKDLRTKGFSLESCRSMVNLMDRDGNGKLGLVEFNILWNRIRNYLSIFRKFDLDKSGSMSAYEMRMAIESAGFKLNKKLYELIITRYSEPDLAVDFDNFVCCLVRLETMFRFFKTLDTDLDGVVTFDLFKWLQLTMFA
The experiment is described as follows: Inhibition of full-length human calpain-1 at 5 uM preincubated for 10 mins followed by Suc-LLVY-AMC substrate addition by fluorescence assay relative to control.

Experiment [3] has as its target Cathepsin B (Homo sapiens) (UniProt P07858). The experiment is described as follows: Inhibition of human recombinant cathepsin-B at 5 uM preincubated for 10 mins followed by Z-FR-AMC substrate addition by fluorescence assay.
The next experiment has as its target T4, Caspase-1 (Homo sapiens) (UniProt P29466).
T4 sequence (whole entry): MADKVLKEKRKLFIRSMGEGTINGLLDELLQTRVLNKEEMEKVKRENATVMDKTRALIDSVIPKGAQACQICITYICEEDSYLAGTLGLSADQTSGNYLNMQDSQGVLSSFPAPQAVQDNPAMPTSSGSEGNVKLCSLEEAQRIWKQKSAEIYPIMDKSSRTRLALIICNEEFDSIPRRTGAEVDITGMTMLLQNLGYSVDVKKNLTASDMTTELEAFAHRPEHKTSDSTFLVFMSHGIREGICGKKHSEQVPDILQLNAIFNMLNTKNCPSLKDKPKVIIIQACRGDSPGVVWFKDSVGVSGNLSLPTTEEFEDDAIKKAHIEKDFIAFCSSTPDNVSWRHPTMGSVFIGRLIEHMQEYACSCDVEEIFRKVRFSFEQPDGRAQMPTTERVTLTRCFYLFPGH
The experiment is described as follows: Non-competitive inhibition of human recombinant N-terminal His-tagged DTT-activated caspase-1 expressed in Escherichia coli using 5 to 50 uM Ac-WEHD-AMC as substrate preincubated for 30 mins followed by substrate addition by Michaelis-Menten plot analysis.

The species entered for experiment [4] is Homo sapiens. The experiment is described as follows: Selectivity ratio of Ki for human recombinant DTT-activated caspase-5 expressed in Escherichia coli to Ki for human recombinant N-terminal His-tagged DTT-activated caspase-4 expressed in Escherichia coli.
Experiment [5] addresses T2, Cathepsin K (Homo sapiens). The experiment is described as follows: Inhibition of human recombinant cathepsin-K at 5 uM preincubated for 10 mins followed by Z-FR-AMC substrate addition by fluorescence assay.
The species named for experiment [6] is Homo sapiens. The experiment is described as follows: Selectivity ratio of Ki for human recombinant N-terminal His-tagged DTT-activated caspase-1 expressed in Escherichia coli to Ki for human recombinant N-terminal His-tagged DTT-activated caspase-4 expressed in Escherichia coli.
Experiment [7] is filed under the species Homo sapiens. The experiment is described as follows: Selectivity ratio of Ki for human recombinant N-terminal His-tagged DTT-activated caspase-1 expressed in Escherichia coli to Ki for human recombinant DTT-activated caspase-5 expressed in Escherichia coli.
For experiment [8], the species on record is Homo sapiens. The experiment is described as follows: Selectivity ratio of Ki for human recombinant N-terminal His-tagged DTT-activated caspase-4 expressed in Escherichia coli to Ki for human recombinant DTT-activated caspase-5 expressed in Escherichia coli.

Molecules are shown by their SMILES. Activity calls are given as the source filed them. No cut-off for these calls is given here.

With `COc1cccc(CN2CCN(c3cc(N4CCCC4)nc(N4CCCC4)n3)CC2)c1`, the inhibition entry (on Papain (Carica papaya); in [2]; in experiment [3]) was “Active” in each case. Also, the Activity in [1] turned out to be 78%.

With `c1ccc(CCN2CCN(c3cc(N4CCCC4)nc(N4CCCC4)n3)CC2)cc1`, the inhibition result (on Papain (Carica papaya); on Caspase-1 (Homo sapiens); in experiment [5]; in experiment [2]; in [3]) was “Active” in each case. The Ratio Ki in the experiment filed under Homo sapiens [4] and in the experiment filed under Homo sapiens [6] was 2 each time.

With `O=[N+]([O-])c1ccc(CN2CCN(c3cc(N4CCCC4)nc(N4CCCC4)n3)CC2)cc1`, the Ratio Ki in the experiment filed under Homo sapiens [7] and in the experiment listed under Homo sapiens [8] was 10 throughout.

For the compound `c1cncc(CN2CCN(c3cc(N4CCCC4)nc(N4CCCC4)n3)CC2)c1`, the inhibition result (at Papain (Carica papaya); in experiment [5]; in [2]; in experiment [3]) was “Active” each time. Besides, the Ratio Ki in the experiment filed under Homo sapiens [7] and in the experiment listed under Homo sapiens [8] was 10 in each case.

Consider `c1cc(CN2CCN(c3cc(N4CCCC4)nc(N4CCCC4)n3)CC2)ccn1`, for which the Ratio Ki in the experiment filed under Homo sapiens [7] and in the experiment filed under Homo sapiens [8] was 10 each time.
